Measurements taken from patent US20220372014A1, “NEUROPROTECTIVE COMPOUNDS AND METHODS OF USE THEREOF” (The Johns Hopkins University, priority 2019, published 2022).

Tests used:
MIF = biological target: T1, MIF (Homo sapiens, UniProt P14174); experiment: Nuclease assay of Example 3 (MIF inhibitory activity, Table 4); assay type: biochemical; set-up: (%) inhibition of MIF nuclease activity: concentration or dose not given beside the values; conditions: for (%) inhibition of MIF nuclease activity: nuclease assay of Example 3
T1 sequence (P14174 1-115): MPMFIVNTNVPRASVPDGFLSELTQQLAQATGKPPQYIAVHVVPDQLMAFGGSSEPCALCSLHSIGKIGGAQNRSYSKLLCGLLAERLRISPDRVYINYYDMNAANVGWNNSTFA
In short: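 Human genomic DNA (200 ng), pcDNA (200 ng) or PS^30-type substrates (1 μM) were incubated with MIF (0.25-8 μM final) in 10 mM Tris-HCl pH 7.0, 10 mM MgCl2, 1 mM DTT at 37 °C for 1 h (pcDNA, small substrates) or 4 h (genomic DNA). Cleavage was assessed by agarose or PAGE electrophoresis with EtBr staining and chemiluminescent detection of biotin-labelled DNA.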

[1] = tested on: HeLa cells or neuronal cells; experiment: Cell death assay of Example 3 (MNNG, alamarBlue; protection against parthanatos, Table 4); assay type: cell-based; conditions: 1 μM test compound; for (%) inhibition of cell death: MNNG-induced cell death, alamarBlue
In short: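 HeLa or neuronal cells (1×10^4/well) were pretreated 1 h at 37° C with 1 μM compound, exposed to MNNG for 15 min, washed, then re-incubated 18 h with 1 μM compound. Viability was read by alamarBlue fluorescence (ex 560/em 590 nm). Cell death was expressed relative to control wells.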

| SMILES | (%) inhibition of MIF nuclease activity (MIF) | (%) inhibition of cell death [1] | MIF nuclease activity (MIF) | protection against parthanatos (cell death) [1] | (%) inhibition of cell death ([1]; 1 µM) |
| --- | --- | --- | --- | --- | --- |
| COc1ccc(CC[C@H]2OC(=O)[C@@H]3CCCCN3C(=O)C(=O)C(C)(C)COC(=O)C=CCCN(C)C(=O)[C@H](CC(C)C)NC(=O)[C@H](C(C)C)N(C)C(=O)[C@@H](Cc3ccccc3)NC(=O)[C@H](CC(C)C)N(C)C(=O)CCC(=O)Nc3cccc2c3)cc1OC [compound 81] | 12.3% | 49.8% | – | – | – |
| COc1ccc(CC[C@H]2OC(=O)[C@@H]3CCCCN3C(=O)C(=O)C(C)(C)COC(=O)C=CCCN(C)C(=O)[C@@H](CC(C)C)NC(=O)[C@H](C(C)C)N(C)C(=O)[C@@H](Cc3ccccc3)NC(=O)[C@H](CC(C)C)N(C)C(=O)CCC(=O)Nc3cccc2c3)cc1OC [compound 82] | 8.5% | 47.0% | – | – | – |
| COc1ccc(CC[C@H]2OC(=O)[C@@H]3CCCCN3C(=O)C(=O)C(C)(C)COC(=O)C=CCCN(C)C(=O)[C@H](Cc3ccccc3)NC(=O)[C@H](C(C)C)N(C)C(=O)[C@@H](Cc3ccccc3)NC(=O)[C@H](CC(C)C)N(C)C(=O)CCC(=O)Nc3cccc2c3)cc1OC [compound 83] | 12.0% | 49.8% | – | – | – |
| COc1ccc(CC[C@H]2OC(=O)[C@@H]3CCCCN3C(=O)C(=O)C(C)(C)COC(=O)C=CCCN(C)C(=O)[C@@H](Cc3ccccc3)NC(=O)[C@H](C(C)C)N(C)C(=O)[C@@H](Cc3ccccc3)NC(=O)[C@H](CC(C)C)N(C)C(=O)CCC(=O)Nc3cccc2c3)cc1OC [compound 84] | 10.8% | 51.0% | – | – | – |
| COc1ccc(CC[C@H]2OC(=O)[C@@H]3CCCCN3C(=O)C(=O)C(C)(C)COC(=O)C=CCCN(C)C(=O)[C@H](Cc3ccc(F)cc3)NC(=O)[C@H](C(C)C)N(C)C(=O)[C@@H](Cc3ccccc3)NC(=O)[C@H](CC(C)C)N(C)C(=O)CCC(=O)Nc3cccc2c3)cc1OC [compound 85] | 10.7% | 49.4% | – | – | – |
| COc1ccc(CC[C@H]2OC(=O)[C@@H]3CCCCN3C(=O)C(=O)C(C)(C)COC(=O)C=CCCN(C)C(=O)[C@@H]3CCCN3C(=O)[C@H](C(C)C)N(C)C(=O)[C@@H](Cc3ccccc3)NC(=O)[C@H](CC(C)C)N(C)C(=O)CCC(=O)Nc3cccc2c3)cc1OC [compound 86] | 22.7% | 53.0% | – | – | – |
| COc1ccc(CC[C@H]2OC(=O)[C@@H]3CCCCN3C(=O)C(=O)C(C)(C)COC(=O)C=CCCN(C)C(=O)[C@H](CC3CCCCC3)NC(=O)[C@H](C(C)C)N(C)C(=O)[C@@H](Cc3ccccc3)NC(=O)[C@H](CC(C)C)N(C)C(=O)CCC(=O)Nc3cccc2c3)cc1OC [compound 87] | 17.1% | 51.3% | – | – | – |
| COc1ccc(CC[C@H]2OC(=O)[C@@H]3CCCCN3C(=O)C(=O)C(C)(C)COC(=O)C=CCCN(C)C(=O)[C@H](Cc3ccc4ccccc4c3)NC(=O)[C@H](C(C)C)N(C)C(=O)[C@@H](Cc3ccccc3)NC(=O)[C@H](CC(C)C)N(C)C(=O)CCC(=O)Nc3cccc2c3)cc1OC [compound 88] | 21.3% | 52.7% | – | – | – |
| COc1ccc(CC[C@H]2OC(=O)[C@@H]3CCCCN3C(=O)C(=O)C(C)(C)COC(=O)C=CCCN(C)C(=O)[C@H](C(C)C)NC(=O)[C@H](C(C)C)N(C)C(=O)[C@@H](Cc3ccccc3)NC(=O)[C@H](CC(C)C)N(C)C(=O)CCC(=O)Nc3cccc2c3)cc1OC [compound 89] | 12.6% | 49.9% | – | – | – |
| COc1ccc(CC[C@H]2OC(=O)[C@@H]3CCCCN3C(=O)C(=O)C(C)(C)COC(=O)C=CCCN(C)C(=O)[C@H](c3ccccc3)NC(=O)C(C(C)C)N(C)C(=O)[C@@H](Cc3ccccc3)NC(=O)[C@H](CC(C)C)N(C)C(=O)CCC(=O)Nc3cccc2c3)cc1OC (stereo partly drawn) [compound 90] | 15.8% | 48.5% | – | – | – |
| COc1ccc(CC[C@H]2OC(=O)[C@@H]3CCCCN3C(=O)C(=O)C(C)(C)COC(=O)C=CCCN(C)C(=O)[C@H]3CCCN3C(=O)[C@H](COC(C)(C)C)N(C)C(=O)C(c3ccccc3)NC(=O)[C@H](C)N(C)C(=O)COc3cccc2c3)cc1OC (stereo partly drawn) [compound 91] | 25.8% | 62.7% | – | – | – |
| COc1ccc(CC[C@H]2OC(=O)[C@@H]3CCCCN3C(=O)C(=O)C(C)(C)COC(=O)C=CCCN(C)C(=O)[C@@H]3CCCCN3C(=O)[C@H](COC(C)(C)C)N(C)C(=O)C(c3ccccc3)NC(=O)[C@H](C)N(C)C(=O)COc3cccc2c3)cc1OC (stereo partly drawn) [compound 92] | 9.0% | 72.1% | do not inhibit MIF nuclease activity | protect against parthanatos | – |
| COc1ccc(CC[C@H]2OC(=O)[C@@H]3CCCCN3C(=O)C(=O)C(C)(C)COC(=O)C=CCCN(C)C(=O)[C@@H]3CC(O)CN3C(=O)[C@H](COC(C)(C)C)N(C)C(=O)C(c3ccccc3)NC(=O)[C@H](C)N(C)C(=O)COc3cccc2c3)cc1OC (stereo partly drawn) [compound 93] | 14.6% | 66.8% | – | – | – |
| COc1ccc(CC[C@H]2OC(=O)[C@@H]3CCCCN3C(=O)C(=O)C(C)(C)COC(=O)C=CCCN(C)C(=O)[C@H](C)N(C)C(=O)[C@H](COC(C)(C)C)N(C)C(=O)C(c3ccccc3)NC(=O)[C@H](C)N(C)C(=O)COc3cccc2c3)cc1OC (stereo partly drawn) [compound 94] | 12.0% | 12.1% | – | – | – |
| COc1ccc(CC[C@H]2OC(=O)[C@@H]3CCCCN3C(=O)C(=O)C(C)(C)COC(=O)C=CCCN(C)C(=O)[C@@H]3CCCN3C(=O)[C@H](COCc3ccccc3)N(C)C(=O)C(c3ccccc3)NC(=O)[C@H](C)N(C)C(=O)COc3cccc2c3)cc1OC (stereo partly drawn) [compound 96] | 32.7% | 69.1% | – | – | – |
| COc1ccc(CC[C@H]2OC(=O)[C@@H]3CCCCN3C(=O)C(=O)C(C)(C)COC(=O)C=CCCN(C)C(=O)[C@@H]3CCCN3C(=O)[C@H](COC(C)(C)C)N(C)C(=O)[C@H](C)NC(=O)[C@H](C)N(C)C(=O)COc3cccc2c3)cc1OC [compound 100] | 13.4% | 26.1% | – | – | – |
| COc1ccc(CC[C@H]2OC(=O)[C@@H]3CCCCN3C(=O)C(=O)C(C)(C)COC(=O)C=CCCN(C)C(=O)[C@@H]3CCCN3C(=O)[C@H](COC(C)(C)C)N(C)C(=O)[C@H](Cc3ccccc3)NC(=O)[C@H](C)N(C)C(=O)COc3cccc2c3)cc1OC [compound 101] | 9.1% | 31.5% | – | – | – |
| COc1ccc(CC[C@H]2OC(=O)[C@@H]3CCCCN3C(=O)C(=O)C(C)(C)COC(=O)C=CCCN(C)C(=O)[C@@H]3CCCN3C(=O)[C@H](COC(C)(C)C)N(C)C(=O)C(c3ccccc3)NC(=O)[C@H](C)N(C)C(=O)COc3cccc2c3)cc1OC (stereo partly drawn) [compound 102] | 59.5% | – | – | – | 77.7% |
| COc1ccc(CC[C@H]2OC(=O)[C@@H]3CCCCN3C(=O)C(=O)C(C)(C)COC(=O)C=CCCN(C)C(=O)[C@@H]3CCCN3C(=O)[C@H](COC(C)(C)C)N(C)C(=O)[C@H](Cc3ccc(F)cc3)NC(=O)[C@H](C)N(C)C(=O)COc3cccc2c3)cc1OC [compound 103] | 16.8% | 22.5% | – | – | – |
| COc1ccc(CC[C@H]2OC(=O)[C@@H]3CCCCN3C(=O)C(=O)C(C)(C)COC(=O)C=CCCN(C)C(=O)[C@@H]3CCCN3C(=O)[C@H](COC(C)(C)C)N(C)C(=O)[C@H](Cc3ccncc3)NC(=O)[C@H](C)N(C)C(=O)COc3cccc2c3)cc1OC [compound 104] | 13.2% | 20.4% | – | – | – |
| COc1ccc(CC[C@H]2OC(=O)[C@@H]3CCCCN3C(=O)C(=O)C(C)(C)COC(=O)C=CCCN(C)C(=O)[C@@H]3CCCN3C(=O)[C@H](COC(C)(C)C)N(C)C(=O)C(c3ccccc3)NC(=O)[C@@H](C)N(C)C(=O)COc3cccc2c3)cc1OC (stereo partly drawn) [compound 106] | 11.9% | 13.1% | – | – | – |
| COc1ccc(CC[C@H]2OC(=O)[C@@H]3CCCCN3C(=O)C(=O)C(C)(C)COC(=O)C=CCCN(C)C(=O)[C@@H]3CCCN3C(=O)[C@H](COC(C)(C)C)N(C)C(=O)C(c3ccccc3)NC(=O)CN(C)C(=O)COc3cccc2c3)cc1OC (stereo partly drawn) [compound 107] | 20.0% | – | – | – | 15.1% |
| COc1ccc(CC[C@H]2OC(=O)[C@@H]3CCCCN3C(=O)C(=O)C(C)(C)COC(=O)C=CCCN(C)C(=O)[C@@H]3CCCN3C(=O)[C@H](CO)N(C)C(=O)C(c3ccccc3)NC(=O)C(CO)N(C)C(=O)COc3cccc2c3)cc1OC (stereo partly drawn) [compound 108] | 4.2% | 20.4% | – | – | – |
